For data set [1] the following is noted: Crystal; DTA.
Data set [2] is described as follows: Molar enthalpy of transition or fusion. Particulars: Crystal; DSC.

± gives the expanded uncertainty stated by the source.

In the case of `CC1=CC(=O)C(C(C)C)=CC1=O` [2-isopropyl-5-methylcyclohexa-2,5-diene-1,4-dione], in data set [1], the Normal melting temperature was 43.6 ± 0.5 °C.

As for `O=c1cc(O)c2ccccc2o1` [4-hydroxycoumarin], the Normal melting temperature in data set [1] turned out to be 215.2 ± 0.39 °C.

On to `CC(=O)N[C@@H](CS)C(=O)O` [N-acetyl-L-cysteine], for which, in data set [2], the “Molar enthalpy of transition or fusion” value was determined as 7.67 ± 0.167 kcal/mol.

Turning to `CC(C)Cc1ccc(C(C)C(=O)O)cc1` (stereo not given) [ibuprofen], the Normal melting temperature in data set [1] was found to be 74.6 ± 0.39 °C.

For `NNC(=O)c1ccncc1` [isonicotinic acid hydrazide], the Normal melting temperature in data set [1] turned out to be 172.69 ± 1.1 °C.

These data come from the NIST ThermoML archive (doi:10.1016/j.fluid.2015.03.053).
